According to PMC7101356, “Cross-site and cross-platform variability of automated patch clamp assessments of drug effects on human cardiac currents in recombinant cells” (Scientific Reports, 2020):

What was measured:
[1] = target: T1, late hNav1.5 (Homo sapiens, UniProt Q14524); assay: Automated patch clamp, late hNav1.5 current block (ATX-II activated); assay type: cell-based
T1 construct: expressed in transfected cells; host or cells: HEK293 or CHO, depending on site

[2] = target: T2, hERG (Homo sapiens, UniProt Q12809); assay: Automated patch clamp, hERG current block (consensus step-ramp protocol); conditions: for hERG K+ current inhibition, Mean, at maximal concentration: max conc [mol/L]: bep 3.00E-07, cpz 3.00E-06, cis 3.00E-07, dil 1.00E-04, dof 1.00E-07, mex 1.00E-04, ond 1.00E-05, qui 1.00E-05, ran 1.00E-04, sot 3.00E-04, ter 3.00E-07, ver 1.00E-06; for hERG K+ current inhibition, Mean, at minimal concentration: min conc [mol/L]: bep 1.00E-08, cpz 1.00E-07, cis 1.00E-09, dil 3.00E-06, dof 1.00E-09, mex 1.00E-06, ond 3.00E-07, qui 1.00E-07, ran 3.00E-06, sot 1.00E-05, ter 1.00E-08, ver 3.00E-08
[3] = based on CiPA evaluations; cited from earlier work
[4] = target: T2, hERG; assay: Automated patch clamp, hERG current block, Milnes protocol (site s06); assay type: cell-based; parameters: expressed in transfected cells; host or cells: HEK293 or CHO, depending on site (site s06, Milnes protocol: HEK293); conditions: s06_p4, HEK293, 22–24 °C
Description: Thus, a single test site (s06) elicited hERG current with a 10-s depolarizing voltage step from −80 mV to 0 mV every 25 s (Milnes protocol, see Milnes et al.[14]).
The steady state current at each concentration was used to determine the concentration-response relationships. Mean concentration-response data were fitted to a standard sigmoidal four-parameter logistic equation (GraphPad Prism 7; GraphPad Inc., La Jolla, CA) of the form: Y=Bottom+(Top−Bottom)/(1+10^∧(LogIC50−X)∗HillSlope) where Y is the current inhibition (in % of pre-drug control), X is the logarithm of drug concentration, and IC50 is the drug concentration producing half-maximal current inhibition. Curve fitting was performed using the following constraints: Top = 100%, Bottom = 0%, Hill Slope <2. No curve fitting was performed in cases with an obvious lack of a concentration-dependent current inhibition and/or small effect size (approximately ≤20%).
This protocol consists of a set of two 25-s-long pulse protocols, with one protocol (“Pulse”) containing a prolonged 10-s-long depolarizing test pulse (0 mV) followed by a 14-s-long return pulse to −80 mV, and a second protocol “No-Pulse” consisting of the same pulse structure without the depolarizing test pulse[18].

[5] = s03_p2, HEK293, room temperature
[6] = s16_p3, HEK293, room temperature

T1 sequence (Q14524 whole entry): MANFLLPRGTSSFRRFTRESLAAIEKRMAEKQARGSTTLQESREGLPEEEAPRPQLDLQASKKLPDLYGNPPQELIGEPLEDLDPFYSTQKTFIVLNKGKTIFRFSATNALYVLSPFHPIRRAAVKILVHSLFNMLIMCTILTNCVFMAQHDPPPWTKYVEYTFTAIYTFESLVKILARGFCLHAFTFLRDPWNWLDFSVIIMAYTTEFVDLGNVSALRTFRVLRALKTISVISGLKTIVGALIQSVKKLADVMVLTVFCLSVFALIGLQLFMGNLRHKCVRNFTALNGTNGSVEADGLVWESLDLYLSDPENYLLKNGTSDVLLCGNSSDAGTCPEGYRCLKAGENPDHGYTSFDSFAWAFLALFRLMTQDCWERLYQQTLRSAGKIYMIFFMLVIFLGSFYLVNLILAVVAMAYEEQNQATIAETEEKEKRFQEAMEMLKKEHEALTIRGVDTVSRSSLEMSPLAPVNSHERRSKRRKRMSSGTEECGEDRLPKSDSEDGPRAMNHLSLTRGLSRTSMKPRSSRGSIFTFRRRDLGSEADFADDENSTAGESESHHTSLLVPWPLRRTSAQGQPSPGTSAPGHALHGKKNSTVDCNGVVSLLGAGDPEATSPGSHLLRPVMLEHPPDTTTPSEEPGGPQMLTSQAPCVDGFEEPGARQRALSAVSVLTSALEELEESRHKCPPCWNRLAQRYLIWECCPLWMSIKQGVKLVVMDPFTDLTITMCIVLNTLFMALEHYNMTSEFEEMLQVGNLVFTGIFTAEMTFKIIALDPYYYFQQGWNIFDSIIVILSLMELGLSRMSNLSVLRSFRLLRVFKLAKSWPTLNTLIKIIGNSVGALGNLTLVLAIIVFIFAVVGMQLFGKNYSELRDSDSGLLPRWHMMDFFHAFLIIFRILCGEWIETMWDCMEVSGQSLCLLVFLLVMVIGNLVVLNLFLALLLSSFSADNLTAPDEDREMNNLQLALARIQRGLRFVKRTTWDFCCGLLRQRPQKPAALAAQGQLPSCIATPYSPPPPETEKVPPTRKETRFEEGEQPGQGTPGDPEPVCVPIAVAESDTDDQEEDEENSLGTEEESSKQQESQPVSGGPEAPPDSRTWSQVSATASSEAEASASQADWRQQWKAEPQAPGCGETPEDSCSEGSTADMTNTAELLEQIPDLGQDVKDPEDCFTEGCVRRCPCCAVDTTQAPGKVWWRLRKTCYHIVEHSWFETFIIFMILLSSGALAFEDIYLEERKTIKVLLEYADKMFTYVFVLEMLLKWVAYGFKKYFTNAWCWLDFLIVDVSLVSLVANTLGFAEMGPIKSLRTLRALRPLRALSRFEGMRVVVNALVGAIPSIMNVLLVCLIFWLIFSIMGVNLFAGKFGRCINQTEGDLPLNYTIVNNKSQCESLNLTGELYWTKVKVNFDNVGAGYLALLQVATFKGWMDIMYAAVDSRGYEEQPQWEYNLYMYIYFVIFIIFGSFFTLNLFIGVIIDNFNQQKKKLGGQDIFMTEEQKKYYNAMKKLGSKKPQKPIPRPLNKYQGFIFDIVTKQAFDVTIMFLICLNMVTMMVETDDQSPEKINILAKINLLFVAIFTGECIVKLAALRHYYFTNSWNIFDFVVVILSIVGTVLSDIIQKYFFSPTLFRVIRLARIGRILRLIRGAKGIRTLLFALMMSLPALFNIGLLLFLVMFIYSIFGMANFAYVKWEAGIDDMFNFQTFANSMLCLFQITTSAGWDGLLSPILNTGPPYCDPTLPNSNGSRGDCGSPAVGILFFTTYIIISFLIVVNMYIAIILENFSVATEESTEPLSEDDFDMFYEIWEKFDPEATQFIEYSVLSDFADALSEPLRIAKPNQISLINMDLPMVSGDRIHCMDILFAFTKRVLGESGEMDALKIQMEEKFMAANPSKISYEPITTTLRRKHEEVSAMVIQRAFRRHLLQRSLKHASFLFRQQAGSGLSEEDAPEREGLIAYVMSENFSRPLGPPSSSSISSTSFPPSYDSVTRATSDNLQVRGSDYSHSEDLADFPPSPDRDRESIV
T2 sequence (Q12809 whole entry): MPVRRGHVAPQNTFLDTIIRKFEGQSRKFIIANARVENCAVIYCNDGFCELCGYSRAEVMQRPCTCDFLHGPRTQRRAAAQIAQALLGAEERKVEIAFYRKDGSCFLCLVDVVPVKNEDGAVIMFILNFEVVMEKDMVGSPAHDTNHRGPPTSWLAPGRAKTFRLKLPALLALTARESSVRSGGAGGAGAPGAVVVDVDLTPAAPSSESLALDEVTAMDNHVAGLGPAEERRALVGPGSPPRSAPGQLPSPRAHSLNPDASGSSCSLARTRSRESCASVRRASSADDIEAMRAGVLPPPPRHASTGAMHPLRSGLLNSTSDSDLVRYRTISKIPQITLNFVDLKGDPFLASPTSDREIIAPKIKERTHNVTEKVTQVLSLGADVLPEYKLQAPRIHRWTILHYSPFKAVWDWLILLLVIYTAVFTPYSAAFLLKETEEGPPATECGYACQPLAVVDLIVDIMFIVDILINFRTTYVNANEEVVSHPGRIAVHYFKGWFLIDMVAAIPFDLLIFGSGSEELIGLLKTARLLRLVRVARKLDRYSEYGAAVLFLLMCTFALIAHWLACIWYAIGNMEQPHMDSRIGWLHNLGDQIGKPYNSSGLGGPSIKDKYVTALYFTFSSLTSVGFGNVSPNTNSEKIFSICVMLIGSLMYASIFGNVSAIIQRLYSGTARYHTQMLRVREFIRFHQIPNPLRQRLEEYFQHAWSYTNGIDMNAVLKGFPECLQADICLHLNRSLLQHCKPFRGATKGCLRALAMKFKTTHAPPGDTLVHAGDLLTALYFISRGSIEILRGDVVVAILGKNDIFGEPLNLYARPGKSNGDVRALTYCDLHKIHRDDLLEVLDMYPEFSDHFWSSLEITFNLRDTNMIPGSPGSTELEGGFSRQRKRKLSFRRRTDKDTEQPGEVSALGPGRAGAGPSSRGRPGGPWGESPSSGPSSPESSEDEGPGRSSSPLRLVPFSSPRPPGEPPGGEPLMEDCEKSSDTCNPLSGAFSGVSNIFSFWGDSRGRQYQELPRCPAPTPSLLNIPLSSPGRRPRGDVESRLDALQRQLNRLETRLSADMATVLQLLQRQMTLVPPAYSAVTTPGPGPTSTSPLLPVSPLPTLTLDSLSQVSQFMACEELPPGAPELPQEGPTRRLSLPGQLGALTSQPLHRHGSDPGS

## Cc1cccc(C)c1OCC(C)N (stereo not shown) [mex, mexiletine]
[1]; site_platform s06_p4
  nH, Hill slope, late hNav1.5 inhibition: 0.97
[1]; site_platform s06_p4, 1.00E-04 mol/L
  Late hNav1.5 Na+ current inhibition, Mean: 96.2%
[1]; site_platform s06_p4, 1.00E-06 mol/L
  Late hNav1.5 Na+ current inhibition, Mean: 18.9%
[1]; site_platform s07_p6
  nH, Hill slope, late hNav1.5 inhibition: 1.16
[1]; site_platform s07_p6, 1.00E-04 mol/L
  Late hNav1.5 Na+ current inhibition, Mean: 89.6%
[1]; site_platform s07_p6, 1.00E-06 mol/L
  Late hNav1.5 Na+ current inhibition, Mean: 5.5%
[1]; site_platform s13_p2
  nH, Hill slope, late hNav1.5 inhibition: 0.53
[1]; site_platform s13_p2, 1.00E-04 mol/L
  Late hNav1.5 Na+ current inhibition, Mean: 76.8%
[1]; site_platform s13_p2, 1.00E-06 mol/L
  Late hNav1.5 Na+ current inhibition, Mean: 26.4%
[1]; site_platform s14_p1
  nH, Hill slope, late hNav1.5 inhibition: 4.08
[1]; site_platform s14_p1, 1.00E-04 mol/L
  Late hNav1.5 Na+ current inhibition, Mean: 98.8%
[1]; site_platform s14_p1, 1.00E-06 mol/L
  Late hNav1.5 Na+ current inhibition, Mean: -15.4%
[2]; hERG K+ current log IC50, s01_p1, CHO, 23 °C
  IC50: 138 µM
[2]; hERG K+ current log IC50, s02_p2, HEK293, 22–26 °C
  IC50: 110 µM
[2]; hERG K+ current log IC50, s03_p2, HEK293, room temperature
  IC50: 20.4 µM
[2]; hERG K+ current log IC50, s04_p3, CHO, room temperature
  IC50: 47.9 µM
[2]; hERG K+ current log IC50, s15_p1, HEK293, 22–23 °C
  IC50: 24 µM
[2]; hERG K+ current log IC50, s16_p3, HEK293, room temperature
  IC50: 85.1 µM
[2]; human, hERG K+ current inhibition, Mean, site_platform s07_p5, 1.00E-04 mol/L
  inhibition at 0.0001 mol/L: 65%
[2]; human, hERG K+ current inhibition, Mean, site_platform s07_p5, 1.00E-06 mol/L
  inhibition at 1e-06 mol/L: -10.5%
[2]; human, hERG K+ current inhibition, Mean, site_platform s10_p3, 1.00E-04 mol/L
  inhibition at 4 min, 0.0001 mol/L: 42%
[2]; human, hERG K+ current inhibition, Mean, site_platform s10_p3, 1.00E-06 mol/L
  inhibition at 4 min, 1e-06 mol/L: -3.5%
[2]; human, hERG K+ current inhibition, Mean, site_platform s11_p1, 1.00E-04 mol/L
  inhibition at 7 min, 0.0001 mol/L: 73.7%
[2]; human, hERG K+ current inhibition, Mean, site_platform s12_p2, 1.00E-04 mol/L
  inhibition at 0.0001 mol/L: 56.6%
[2]; human, hERG K+ current inhibition, Mean, site_platform s12_p2, 1.00E-06 mol/L
  inhibition at 1e-06 mol/L: 0.2%
[2]; human, hERG K+ current inhibition, Mean, site_platform s13_p2, 1.00E-04 mol/L
  inhibition at 0.0001 mol/L: 78.6%
[2]; human, hERG K+ current inhibition, Mean, site_platform s13_p2, 1.00E-06 mol/L
  inhibition at 1e-06 mol/L: 7.7%
[2]; human, hERG K+ current inhibition, Mean, site_platform s14_p1, 1.00E-04 mol/L
  inhibition at 7 min, 0.0001 mol/L: 60.2%
[2]; human, hERG K+ current inhibition, Mean, site_platform s14_p1, 1.00E-06 mol/L
  inhibition at 7 min, 1e-06 mol/L: 10.8%
[2]; human, recombinant cells expressing hERG, hERG K+ current inhibition, Mean, site_platform s11_p1, 1.00E-06 mol/L
  inhibition at 7 min, 1e-06 mol/L: 29.4%
[2]; log IC50, hERG K+ current inhibition, site_platform s07_p5
  IC50: 72.4 µM
[2]; log IC50, hERG K+ current inhibition, site_platform s10_p3
  IC50: 126 µM
[2]; log IC50, hERG K+ current inhibition, site_platform s11_p1
  IC50: 15.8 µM
[2]; log IC50, hERG K+ current inhibition, site_platform s12_p2
  IC50: 77.6 µM
[2]; log IC50, hERG K+ current inhibition, site_platform s13_p2
  IC50: 34.7 µM
[2]; log IC50, hERG K+ current inhibition, site_platform s14_p1
  IC50: 63.1 µM
[2]; s01_p1, CHO, 23 °C
  hERG K+ current nH, Hill slope: 0.78
  hERG K+ current inhibition, Mean, at maximal concentration: 46.1%
  hERG K+ current inhibition, Mean, at minimal concentration: 0.7%
[2]; s02_p2, HEK293, 22–26 °C
  hERG K+ current nH, Hill slope: 0.95
  hERG K+ current inhibition, Mean, at maximal concentration: 48.2%
  hERG K+ current inhibition, Mean, at minimal concentration: 1.0%
[2]; [5]
  hERG K+ current nH, Hill slope: 0.95
  hERG K+ current inhibition, Mean, at maximal concentration: 86.8%
  hERG K+ current inhibition, Mean, at minimal concentration: 14.6%
[2]; s04_p3, CHO, room temperature
  hERG K+ current nH, Hill slope: 0.81
  hERG K+ current inhibition, Mean, at maximal concentration: 67.4%
  hERG K+ current inhibition, Mean, at minimal concentration: 9.7%
[2]; s05_p4, HEK293, 22–24 °C
  hERG K+ current log IC50: -4.37 log mol/L
  hERG K+ current nH, Hill slope: 1.45
  hERG K+ current inhibition, Mean, at maximal concentration: 75.7%
[2]; s15_p1, HEK293, 22–23 °C
  hERG K+ current nH, Hill slope: 0.72
  hERG K+ current inhibition, Mean, at maximal concentration: 74.6%
  hERG K+ current inhibition, Mean, at minimal concentration: 10.3%
[2]; [6]
  hERG K+ current nH, Hill slope: 0.76
  hERG K+ current inhibition, Mean, at maximal concentration: 52.6%
  hERG K+ current inhibition, Mean, at minimal concentration: 3.9%
[2]; s18_p1, CHO, 35 °C
  hERG K+ current nH, Hill slope: 1.12
  hERG K+ current inhibition, Mean, at maximal concentration: 70.4%
  hERG K+ current inhibition, Mean, at minimal concentration: -1.2%
[2]; s19_p3, CHO, room temperature
  hERG K+ current nH, Hill slope: 0.84
  hERG K+ current inhibition, Mean, at maximal concentration: 58.4%
  hERG K+ current inhibition, Mean, at minimal concentration: 4.2%
[2]; site_platform s07_p5
  nH (Hill slope), hERG K+ current inhibition: 1.95
[2]; site_platform s10_p3
  nH (Hill slope), hERG K+ current inhibition: 1.32
[2]; site_platform s11_p1
  nH (Hill slope), hERG K+ current inhibition: 0.41
[2]; site_platform s12_p2
  nH (Hill slope), hERG K+ current inhibition: 1.12
[2]; site_platform s13_p2
  nH (Hill slope), hERG K+ current inhibition: 1.01
[2]; site_platform s14_p1
  nH (Hill slope), hERG K+ current inhibition: 0.63
[3]
  TdP Risk Category: Low
[4]
  hERG K+ current nH, Hill slope: 1.02
[4]; max conc [mol/L]: bep 3.00E-07, cpz 3.00E-06, cis 3.00E-07, dil 1.00E-04, dof 1.00E-07, mex 1.00E-04, ond 1.00E-05, qui 1.00E-05, ran 1.00E-04, sot 3.00E-04, ter 3.00E-07, ver 1.00E-06
  hERG K+ current inhibition, Mean, at maximal concentration: 71.6%
[4]; min conc [mol/L]: bep 1.00E-08, cpz 1.00E-07, cis 1.00E-09, dil 3.00E-06, dof 1.00E-09, mex 1.00E-06, ond 3.00E-07, qui 1.00E-07, ran 3.00E-06, sot 1.00E-05, ter 1.00E-08, ver 3.00E-08
  hERG K+ current inhibition, Mean, at minimal concentration: -3.4%
